Laboratory results reported in ChEMBL document CHEMBL6182945, “MMAE-Based Peptide-Drug Conjugates Targeting GPC3 for Precision Chemoradiotherapy in Hepatocellular Carcinoma” (J Med Chem, 2025).
Activity calls are given as the source filed them. No cut-off for these calls is given here. Starred links: 1 amine or outer side, 2 acyl side, 3 side chain; linkers in the order of their positions; H or OH if unused. Positions of bridges follow the written chain, without caps; N, C: chain ends. Non-standard residues stand in square brackets, D forms with d. Residues, ends and D or L forms follow the SMILES beside them. Chains are numbered I, II in the order given. *: point of attachment. X2 = CC[C@H](C)[C@@H]([C@@H](CC(=O)N1CCC[C@H]1[C@H](OC)[C@@H](C)C(=O)N[C@H](C)[C@H](O)c1ccccc1)OC)N(C)[C@H](C(=O)NC(=O)[C@H](C(C)C)N(C)C(=O)OCc1ccc(NC(=O)[C@H](CCCNC(N)=O)NC(=O)[C@@H](NC(=O)CCCCCN2C(=O)CC(*)C2=O)C(C)C)cc1)C(C)C; Hexanoyl(6-succinimido-3yl) = O=C1CC([*:1])C(=O)N1CCCCCC(=O)[*:2]; Dolaproine = CO[C@@H]([C@@H]1CCCN1)[C@@H](C)C(=O)O; Dil = CC[C@H](C)[C@H](NC)[C@@H](CC(=O)O)OC; PABC = O=C(OCc1ccc(N[*:1])cc1)[*:2]; X1 = C[C@@H](N*)[C@@H](O)c1ccccc1; Cit = NC(=O)NCCC[C@H](N)C(=O)O; NMeV = CN[C@H](C(=O)O)C(C)C

Key:
LX-2 = test: Antiproliferative activity against GPC3-negative human LX-2 cells assessed as cytotoxicity measured after 72 hrs by MTT assay; format: functional, cell-based; details: LX-2, 72 h
Huh-7 = test: Antiproliferative activity against GPC3-positive human Huh-7 cells assessed as cytotoxicity measured after 72 hrs by MTT assay; format: functional, cell-based; details: Huh-7, 72 h
Hep 3B2 = test: Antiproliferative activity against GPC3-positive human Hep3B cells assessed as cytotoxicity measured after 72 hrs by MTT assay; format: functional, cell-based
HeLa = test: Antiproliferative activity against GPC3-negative human HeLa cells assessed as cytotoxicity measured after 72 hrs by MTT assay; format: functional, cell-based
[1] = Drug uptake in human Huh-7 cells assessed as green fluorescence in lysosomes measured after 30 mins co-staining with lysotracker by live cell confocal imaging analysis; format: ADME, cell-based; details: huh-7, 0.5 h
[2] = Drug uptake in human Huh-7 cells assessed as red fluorescence in inside the cells measured after 30 mins by live cell confocal imaging analysis; format: ADME, cell-based; details: huh-7, 0.5 h
[3] = target: Glypican-3 (Homo sapiens) (UniProt P51654); test: Binding affinity to GPC3 in human Huh-7 cells assessed as increase in fluorescence (red color) by immunofluorescence staining based assay; format: cell-based
[4] = target: Glypican-3 (Homo sapiens) (UniProt P51654); test: Binding affinity to GPC3 in human LX-2 cells assessed as increase in fluorescence (red color) measured after 4 hrs incubation by immunofluorescence staining based assay; format: cell-based
[5] = target: Glypican-3 (Homo sapiens) (UniProt P51654); test: Binding affinity to GPC3 in human Hep3B cells assessed as increase in fluorescence (red color) by immunofluorescence staining based assay; format: cell-based
[6] = target: Glypican-3 (Homo sapiens) (UniProt P51654); test: Binding affinity to GPC3 in human HeLa cells assessed as increase in fluorescence (red color) measured after 4 hrs incubation by immunofluorescence staining based assay; format: cell-based

Sequence of Glypican-3 (Homo sapiens) (P51654 25-358 limits assumed): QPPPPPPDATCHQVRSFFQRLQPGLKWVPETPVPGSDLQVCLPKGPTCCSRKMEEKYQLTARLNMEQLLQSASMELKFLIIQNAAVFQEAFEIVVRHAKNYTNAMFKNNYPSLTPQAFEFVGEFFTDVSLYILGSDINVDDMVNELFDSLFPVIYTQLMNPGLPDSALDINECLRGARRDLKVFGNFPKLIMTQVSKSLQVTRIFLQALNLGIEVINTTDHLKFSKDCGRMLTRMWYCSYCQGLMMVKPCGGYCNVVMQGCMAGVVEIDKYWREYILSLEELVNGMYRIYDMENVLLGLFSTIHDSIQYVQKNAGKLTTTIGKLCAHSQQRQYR
Sequence of Glypican-3 (Homo sapiens) (P51654 359-554 limits assumed): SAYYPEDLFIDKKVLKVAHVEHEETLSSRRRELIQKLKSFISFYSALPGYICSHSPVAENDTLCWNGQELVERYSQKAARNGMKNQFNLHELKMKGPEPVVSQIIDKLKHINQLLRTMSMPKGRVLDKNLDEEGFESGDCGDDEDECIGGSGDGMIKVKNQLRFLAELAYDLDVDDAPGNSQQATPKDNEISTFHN

Row | Drug uptake [1] | Drug uptake [2] | Activity [3] | Activity [4] | Activity [5] | Activity [6] | Structure (SMILES) | IC50 (LX-2) [nM] | IC50 (Huh-7) [nM] | IC50 (Hep 3B2) [nM] | IC50 (HeLa) [nM]
1 |  |  |  |  |  |  | CC[C@H](C)[C@@H]([C@@H](CC(=O)N1CCC[C@H]1[C@H](OC)[C@@H](C)C(=O)N[C@H](C)[C@@H](O)c1ccccc1)OC)N(C)C(=O)[C@@H](NC(=O)[C@H](C(C)C)N(C)C(=O)OCc1ccc(NC(=O)[C@H](CCCNC(N)=O)NC(=O)[C@@H](NC(=O)CCCCCN2C(=O)CC(SC[C@H](N)C(=O)N[C@@H](CC(=O)O)C(=O)N[C@@H](Cc3ccc(O)cc3)C(=O)N[C@@H](CCC(=O)O)C(=O)N[C@@H](CCSC)C(=O)N[C@@H](Cc3cnc[nH]3)C(=O)N[C@@H](CC(C)C)C(=O)N[C@@H](Cc3c[nH]c4ccccc34)C(=O)N[C@@H](Cc3c[nH]c4ccccc34)C(=O)NCC(=O)N[C@H](C(=O)N[C@@H](CCC(=O)O)C(=O)N[C@@H](CC(C)C)C(N)=O)[C@@H](C)O)C2=O)C(C)C)cc1)C(C)C (some centres not stated) (I: H-CDYEMHLWWGTEL-NH2 / II: V[Cit][PABC][NMeV]V[Dil][Dolaproine]-X1; linker I:1-II:N via Hexanoyl(6-succinimido-3yl)) | 58.1 | 41.5 | > 100 | > 100
2 |  |  |  |  |  |  | CC[C@H](C)[C@@H]([C@@H](CC(=O)N1CCC[C@H]1[C@H](OC)[C@@H](C)C(=O)N[C@H](C)[C@H](O)c1ccccc1)OC)N(C)[C@H](C(=O)NC(=O)[C@H](C(C)C)N(C)C(=O)OCc1ccc(NC(=O)[C@H](CCCNC(N)=O)NC(=O)[C@@H](NC(=O)CCCCCN2C(=O)CC(SC[C@H](N)C(=O)N[C@H](C(=O)N[C@@H](Cc3cnc[nH]3)C(=O)N[C@H](C(=O)N[C@@H](CO)C(=O)N3CCC[C@H]3C(=O)N[C@@H](CC(N)=O)C(=O)N[C@@H](CCC(N)=O)C(=O)NCC(=O)NCC(=O)N[C@@H](CC(C)C)C(=O)N3CCC[C@H]3C(=O)N[C@@H](CO)C(=O)O)C(C)C)[C@@H](C)O)C2=O)C(C)C)cc1)C(C)C (some centres not stated) (H-C(X2)THVSPNQGGLPS-OH) | 48.9 | 40 | > 100 | > 100
3 | Active | Active |  |  |  |  | CC[C@H](C)[C@@H]([C@@H](CC(=O)N1CCC[C@H]1[C@H](OC)[C@@H](C)C(=O)N[C@H](C)[C@@H](O)c1ccccc1)OC)N(C)C(=O)[C@@H](NC(=O)[C@H](C(C)C)N(C)C(=O)OCc1ccc(NC(=O)[C@H](CCCNC(N)=O)NC(=O)[C@@H](NC(=O)CCCCCN2C(=O)CC(SC[C@H](NC(=O)CCCCC[N+]3=C(/C=C/C=C/C=C4\N(C)c5ccc6ccccc6c5C4(C)C)C(C)(C)c4c3ccc3ccccc43)C(=O)N[C@@H](CO)C(=O)N[C@@H](CC(N)=O)C(=O)N[C@@H](CC(=O)O)C(=O)N[C@@H](CCCNC(=N)N)C(=O)N3CCC[C@H]3C(=O)N3CCC[C@H]3C(=O)N[C@@H](CC(N)=O)C(=O)N[C@H](C(=O)N[C@@H](CC(C)C)C(=O)N[C@@H](CCC(N)=O)C(=O)N[C@@H](CCCCN)C(=O)N[C@@H](CCCNC(=N)N)C(N)=O)[C@@H](C)CC)C2=O)C(C)C)cc1)C(C)C (some centres not stated) |  |  |  | 
4 |  |  |  |  |  |  | CC[C@H](C)[C@@H]([C@@H](CC(=O)N1CCC[C@H]1[C@H](OC)[C@@H](C)C(=O)N[C@H](C)[C@@H](O)c1ccccc1)OC)N(C)C(=O)[C@@H](NC(=O)[C@@H](NC)C(C)C)C(C)C (H-[NMeV]V[Dil][Dolaproine]-X1) | 0.46 | 1.05 | 8.63 | 1.47
5 |  |  |  |  |  |  | CC[C@H](C)[C@@H]([C@@H](CC(=O)N1CCC[C@H]1[C@H](OC)[C@@H](C)C(=O)N[C@H](C)[C@@H](O)c1ccccc1)OC)N(C)C(=O)[C@@H](NC(=O)[C@H](C(C)C)N(C)C(=O)OCc1ccc(NC(=O)[C@H](CCCNC(N)=O)NC(=O)[C@@H](NC(=O)CCCCCN2C(=O)CC(SC[C@H](N)C(=O)N[C@@H](CCCNC(=N)N)C(=O)N[C@@H](CC(C)C)C(=O)N[C@@H](CC(N)=O)C(=O)N[C@H](C(=O)NCC(=O)NCC(=O)N[C@H](C(=O)N[C@@H](Cc3ccc(O)cc3)C(=O)N[C@@H](Cc3ccccc3)C(=O)N[C@@H](CC(C)C)C(=O)N[C@H](C(=O)N[C@H](C(=O)N[C@@H](CCCNC(=N)N)C(=O)N[C@@H](CCC(N)=O)C(N)=O)[C@@H](C)O)[C@@H](C)O)[C@@H](C)O)C(C)C)C2=O)C(C)C)cc1)C(C)C (some centres not stated) (I: H-CRLNVGGTYFLTTRQ-NH2 / II: V[Cit][PABC][NMeV]V[Dil][Dolaproine]-X1; linker I:1-II:N via Hexanoyl(6-succinimido-3yl)) | 30.8 | 67.9 | 81.2 | 70.4
6 |  |  |  |  |  |  | CC[C@H](C)[C@@H]([C@@H](CC(=O)N1CCC[C@H]1[C@H](OC)[C@@H](C)C(=O)N[C@H](C)[C@@H](O)c1ccccc1)OC)N(C)C(=O)[C@@H](NC(=O)[C@H](C(C)C)N(C)C(=O)OCc1ccc(NC(=O)[C@H](CCCNC(N)=O)NC(=O)[C@@H](NC(=O)CCCCCN2C(=O)CC(SC[C@H](N)C(=O)N[C@@H](C)C(=O)N[C@@H](CC(C)C)C(=O)N[C@@H](CC(C)C)C(=O)N[C@@H](C)C(=O)N[C@@H](CC(N)=O)C(=O)N[C@@H](Cc3cnc[nH]3)C(=O)N[C@@H](CCC(=O)O)C(=O)N[C@@H](CCC(=O)O)C(=O)N[C@@H](CC(C)C)C(=O)N[C@@H](Cc3ccccc3)C(=O)N[C@@H](CCC(N)=O)C(=O)N[C@H](C(N)=O)[C@@H](C)O)C2=O)C(C)C)cc1)C(C)C (some centres not stated) (I: H-CALLANHEELFQT-NH2 / II: V[Cit][PABC][NMeV]V[Dil][Dolaproine]-X1; linker I:1-II:N via Hexanoyl(6-succinimido-3yl)) | > 100 | 81.4 | > 100 | > 100
7 |  |  | Active | Active | Active | Active | CC[C@H](C)[C@@H]([C@@H](CC(=O)N1CCC[C@H]1[C@H](OC)[C@@H](C)C(=O)N[C@H](C)[C@@H](O)c1ccccc1)OC)N(C)C(=O)[C@@H](NC(=O)[C@H](C(C)C)N(C)C(=O)OCc1ccc(NC(=O)[C@H](CCCNC(N)=O)NC(=O)[C@@H](NC(=O)CCCCCN2C(=O)CC(SC[C@H](NC(=O)CCCCC[N+]3=C(/C=C/C=C/C=C4\N(C)c5ccc6ccccc6c5C4(C)C)C(C)(C)c4c3ccc3ccccc43)C(=O)N[C@@H](CO)C(=O)N[C@@H](CC(N)=O)C(=O)N[C@@H](CC(=O)O)C(=O)N[C@@H](CCCNC(=N)N)C(=O)N3CCC[C@@H]3C(=O)N3CCC[C@@H]3C(=O)N[C@@H](CC(N)=O)C(=O)N[C@H](C(=O)N[C@@H](CC(C)C)C(=O)N[C@@H](CCC(N)=O)C(=O)N[C@@H](CCCCN)C(=O)N[C@@H](CCCNC(=N)N)C(N)=O)[C@@H](C)CC)C2=O)C(C)C)cc1)C(C)C (some centres not stated) |  |  |  | 
8 |  |  |  | Active | Active; Compound Showed Minimal Binding | Active; Compound Showed Minimal Binding | CC[C@H](C)[C@@H]([C@@H](CC(=O)N1CCC[C@H]1[C@H](OC)[C@@H](C)C(=O)N[C@H](C)[C@@H](O)c1ccccc1)OC)N(C)C(=O)[C@@H](NC(=O)[C@H](C(C)C)N(C)C(=O)OCc1ccc(NC(=O)[C@H](CCCNC(N)=O)NC(=O)[C@H](NC(=O)CCCCCN2C(=O)CC(SC[C@H](NC(=O)CCCCC[N+]3=C(/C=C/C=C/C=C4\N(C)c5ccc6ccccc6c5C4(C)C)C(C)(C)c4c3ccc3ccccc43)C(=O)N[C@@H](CC(=O)O)C(=O)N[C@@H](Cc3ccc(O)cc3)C(=O)N[C@@H](CCC(=O)O)C(=O)N[C@@H](CCSC)C(=O)N[C@@H](Cc3cnc[nH]3)C(=O)N[C@@H](CC(C)C)C(=O)N[C@@H](Cc3c[nH]c4ccccc34)C(=O)N[C@@H](Cc3c[nH]c4ccccc34)C(=O)NCC(=O)N[C@H](C(=O)N[C@@H](CCC(=O)O)C(=O)N[C@@H](CC(C)C)C(N)=O)[C@H](C)O)C2=O)C(C)C)cc1)C(C)C (some centres not stated) |  |  |  | 
9 |  |  |  |  |  |  | CC[C@H](C)[C@@H]([C@@H](CC(=O)N1CCC[C@H]1[C@H](OC)[C@@H](C)C(=O)N[C@H](C)[C@@H](O)c1ccccc1)OC)N(C)C(=O)[C@@H](NC(=O)[C@H](C(C)C)N(C)C(=O)OCc1ccc(NC(=O)[C@H](CCCNC(N)=O)NC(=O)[C@@H](NC(=O)CCCCCN2C(=O)CC(SC[C@H](N)C(=O)N[C@@H](Cc3ccc(O)cc3)C(=O)N[C@@H](Cc3ccccc3)C(=O)N[C@@H](CC(C)C)C(=O)N[C@H](C(=O)N[C@H](C(=O)N[C@@H](CCCNC(=N)N)C(=O)N[C@@H](CCC(N)=O)C(N)=O)[C@@H](C)O)[C@@H](C)O)C2=O)C(C)C)cc1)C(C)C (some centres not stated) (I: H-CYFLTTRQ-NH2 / II: V[Cit][PABC][NMeV]V[Dil][Dolaproine]-X1; linker I:1-II:N via Hexanoyl(6-succinimido-3yl)) | > 100 | 30.9 | > 100 | > 100
10 |  |  |  |  |  |  | CC[C@H](C)[C@@H]([C@@H](CC(=O)N1CCC[C@H]1[C@H](OC)[C@@H](C)C(=O)N[C@H](C)[C@@H](O)c1ccccc1)OC)N(C)C(=O)[C@@H](NC(=O)[C@H](C(C)C)N(C)C(=O)OCc1ccc(NC(=O)[C@H](CCCNC(N)=O)NC(=O)[C@@H](NC(=O)CCCCCN2C(=O)CC(SC[C@H](N)C(=O)N[C@@H](CC(=O)O)C(=O)N[C@@H](Cc3cnc[nH]3)C(=O)N[C@@H](CC(C)C)C(=O)N[C@@H](C)C(=O)N[C@@H](CO)C(=O)N[C@@H](CC(C)C)C(=O)N[C@@H](Cc3c[nH]c4ccccc34)C(=O)N[C@@H](Cc3c[nH]c4ccccc34)C(=O)NCC(=O)N[C@H](C(=O)N[C@@H](CCC(=O)O)C(=O)N[C@@H](CC(C)C)C(N)=O)[C@@H](C)O)C2=O)C(C)C)cc1)C(C)C (some centres not stated) (I: H-CDHLASLWWGTEL-NH2 / II: V[Cit][PABC][NMeV]V[Dil][Dolaproine]-X1; linker I:1-II:N via Hexanoyl(6-succinimido-3yl)) | > 100 | > 100 | > 100 | > 100
